According to PubChem BioAssay (NCI):
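All cell lines were grown in 96-well plates and treated with compound for 48 hours. GI50: concentration for 50% inhibition of growth. TGI: concentration producing complete growth inhibition.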

Assays:
Assay in all cases: growth of human tumour cells (NCI), 48 h
NCI-H226 lung = tested on: NCI-H226 lung
COLO 205 colon = tested on: COLO 205 colon
UACC-257 melanoma = tested on: UACC-257 melanoma
HCT-116 colon = tested on: HCT-116 colon
NCI-H460 lung = tested on: NCI-H460 lung
HS 578T breast = tested on: HS 578T breast
CAKI-1 renal = tested on: CAKI-1 renal
SF-295 CNS = tested on: SF-295 CNS
RPMI-8226 leukemia = tested on: RPMI-8226 leukemia
EKVX NSCLC = tested on: EKVX NSCLC
HOP-62 NSCLC = tested on: HOP-62 NSCLC
M14 melanoma = tested on: M14 melanoma
A549 NSCLC = tested on: A549 NSCLC
HOP-92 NSCLC = tested on: HOP-92 NSCLC
CCRF-CEM leukemia = tested on: CCRF-CEM leukemia
UO-31 renal = tested on: UO-31 renal
T-47D breast = tested on: T-47D breast
DU-145 prostate = tested on: DU-145 prostate
RXF 393 renal = tested on: RXF 393 renal
786-0 renal = tested on: 786-0 renal
NCI/ADR-RES ovarian = tested on: NCI/ADR-RES ovarian
HT29 colon = tested on: HT29 colon
MDA-MB-435 = tested on: MDA-MB-435
NCI-H522 lung = tested on: NCI-H522 lung
SK-MEL-28 melanoma = tested on: SK-MEL-28 melanoma
SR leukemia = tested on: SR leukemia
NCI-H23 lung = tested on: NCI-H23 lung
PC-3 prostate = tested on: PC-3 prostate
OVCAR-5 ovarian = tested on: OVCAR-5 ovarian
SNB-75 CNS = tested on: SNB-75 CNS
OVCAR-4 ovarian = tested on: OVCAR-4 ovarian
BT-549 breast = tested on: BT-549 breast
HCT-15 colon = tested on: HCT-15 colon
SN12C renal = tested on: SN12C renal
MOLT-4 leukemia = tested on: MOLT-4 leukemia
HCC-2998 colon = tested on: HCC-2998 colon
MCF7 breast = tested on: MCF7 breast
SK-MEL-5 melanoma = tested on: SK-MEL-5 melanoma
OVCAR-8 ovarian = tested on: OVCAR-8 ovarian
MALME-3M melanoma = tested on: MALME-3M melanoma
MDA-MB-468 breast = tested on: MDA-MB-468 breast
SF-268 CNS = tested on: SF-268 CNS
SK-MEL-2 melanoma = tested on: SK-MEL-2 melanoma
LOX IMVI melanoma = tested on: LOX IMVI melanoma
SNB-19 CNS = tested on: SNB-19 CNS
SF-539 CNS = tested on: SF-539 CNS
K-562 leukemia = tested on: K-562 leukemia
SK-OV-3 ovarian = tested on: SK-OV-3 ovarian
MDA-MB-231 breast = tested on: MDA-MB-231 breast
TK-10 renal = tested on: TK-10 renal
HL-60(TB) leukemia = tested on: HL-60(TB) leukemia
A498 renal = tested on: A498 renal
OVCAR-3 ovarian = tested on: OVCAR-3 ovarian
SW-620 colon = tested on: SW-620 colon
UACC-62 melanoma = tested on: UACC-62 melanoma
ACHN renal = tested on: ACHN renal
IGROV1 ovarian = tested on: IGROV1 ovarian
U251 CNS = tested on: U251 CNS
KM12 colon = tested on: KM12 colon

O=C(Nc1ccc(Cl)c([N+](=O)[O-])c1)Nc1ccc(Cl)c([N+](=O)[O-])c1
GI50 (NCI-H226 lung): 2.92 µM
TGI (NCI-H226 lung): 10.1 µM
GI50 (COLO 205 colon): 2.69 µM
TGI (COLO 205 colon): 6.97 µM
GI50 (UACC-257 melanoma): 4.81 µM
TGI (UACC-257 melanoma): 17.2 µM
GI50 (HCT-116 colon): 3.19 µM
TGI (HCT-116 colon): 9.34 µM
GI50 (NCI-H460 lung): 3.22 µM
TGI (NCI-H460 lung): 10.6 µM
GI50 (HS 578T breast): 5.46 µM
TGI (HS 578T breast): 31.3 µM
GI50 (CAKI-1 renal): 2.98 µM
TGI (CAKI-1 renal): 10.5 µM
GI50 (SF-295 CNS): 2.46 µM
TGI (SF-295 CNS): 7.83 µM
GI50 (RPMI-8226 leukemia): 2.27 µM
TGI (RPMI-8226 leukemia): 6.32 µM
GI50 (EKVX NSCLC): 3.56 µM
TGI (EKVX NSCLC): 13.1 µM
GI50 (HOP-62 NSCLC): 4.63 µM
TGI (HOP-62 NSCLC): 17.2 µM
GI50 (M14 melanoma): 4.04 µM
TGI (M14 melanoma): 15 µM
GI50 (A549 NSCLC): 4.29 µM
TGI (A549 NSCLC): 16.9 µM
GI50 (HOP-92 NSCLC): 2.28 µM
TGI (HOP-92 NSCLC): 6.53 µM
GI50 (CCRF-CEM leukemia): 2.95 µM
TGI (CCRF-CEM leukemia): 11.3 µM
GI50 (UO-31 renal): 2.82 µM
TGI (UO-31 renal): 10.1 µM
GI50 (T-47D breast): 2.2 µM
TGI (T-47D breast): 9.1 µM
GI50 (DU-145 prostate): 3.66 µM
TGI (DU-145 prostate): 13.8 µM
GI50 (RXF 393 renal): 11.3 µM
TGI (RXF 393 renal): 24.8 µM
GI50 (786-0 renal): 2.91 µM
TGI (786-0 renal): 11.9 µM
GI50 (NCI/ADR-RES ovarian): 3.2 µM
TGI (NCI/ADR-RES ovarian): 11.2 µM
GI50 (HT29 colon): 3.34 µM
TGI (HT29 colon): 13.3 µM
GI50 (MDA-MB-435): 3.71 µM
TGI (MDA-MB-435): 12.8 µM
GI50 (NCI-H522 lung): 2.34 µM
TGI (NCI-H522 lung): 5.81 µM
GI50 (SK-MEL-28 melanoma): 3.78 µM
TGI (SK-MEL-28 melanoma): 14.4 µM
GI50 (SR leukemia): 3.57 µM
TGI (SR leukemia): 20.3 µM
GI50 (NCI-H23 lung): 2.36 µM
TGI (NCI-H23 lung): 6.35 µM
GI50 (PC-3 prostate): 2.83 µM
TGI (PC-3 prostate): 10.9 µM
GI50 (OVCAR-5 ovarian): 7.12 µM
TGI (OVCAR-5 ovarian): 20.7 µM
GI50 (SNB-75 CNS): 3.82 µM
TGI (SNB-75 CNS): 19.5 µM
GI50 (OVCAR-4 ovarian): 2.95 µM
TGI (OVCAR-4 ovarian): 11.3 µM
GI50 (BT-549 breast): 2.79 µM
TGI (BT-549 breast): 9.94 µM
GI50 (HCT-15 colon): 2.83 µM
TGI (HCT-15 colon): 10.9 µM
GI50 (SN12C renal): 2.92 µM
TGI (SN12C renal): 9.19 µM
GI50 (MOLT-4 leukemia): 3.12 µM
TGI (MOLT-4 leukemia): 14.6 µM
GI50 (HCC-2998 colon): 3.32 µM
TGI (HCC-2998 colon): 11.9 µM
GI50 (MCF7 breast): 2.31 µM
TGI (MCF7 breast): 7.43 µM
GI50 (SK-MEL-5 melanoma): 2.94 µM
TGI (SK-MEL-5 melanoma): 10.5 µM
GI50 (OVCAR-8 ovarian): 4.06 µM
TGI (OVCAR-8 ovarian): 14.7 µM
GI50 (MALME-3M melanoma): 3.02 µM
TGI (MALME-3M melanoma): 11.8 µM
GI50 (MDA-MB-468 breast): 2.2 µM
TGI (MDA-MB-468 breast): 6.48 µM
GI50 (SF-268 CNS): 3.87 µM
TGI (SF-268 CNS): 15.8 µM
GI50 (SK-MEL-2 melanoma): 2.9 µM
TGI (SK-MEL-2 melanoma): 9.11 µM
GI50 (LOX IMVI melanoma): 3.13 µM
TGI (LOX IMVI melanoma): 9.64 µM
GI50 (SNB-19 CNS): 2.68 µM
TGI (SNB-19 CNS): 10.5 µM
GI50 (SF-539 CNS): 4.88 µM
TGI (SF-539 CNS): 17.3 µM
GI50 (K-562 leukemia): 2.8 µM
TGI (K-562 leukemia): 14.1 µM
GI50 (SK-OV-3 ovarian): 4.04 µM
TGI (SK-OV-3 ovarian): 15.5 µM
GI50 (MDA-MB-231 breast): 3.05 µM
TGI (MDA-MB-231 breast): 8.99 µM
GI50 (TK-10 renal): 4.31 µM
TGI (TK-10 renal): 16.6 µM
GI50 (HL-60(TB) leukemia): 2.72 µM
TGI (HL-60(TB) leukemia): 7.11 µM
GI50 (A498 renal): 3.33 µM
TGI (A498 renal): 10.8 µM
GI50 (OVCAR-3 ovarian): 2.6 µM
TGI (OVCAR-3 ovarian): 7.91 µM
GI50 (SW-620 colon): 3.43 µM
TGI (SW-620 colon): 13 µM
GI50 (UACC-62 melanoma): 2.74 µM
TGI (UACC-62 melanoma): 10.6 µM
GI50 (ACHN renal): 2.69 µM
TGI (ACHN renal): 7.44 µM
GI50 (IGROV1 ovarian): 3.02 µM
TGI (IGROV1 ovarian): 9.14 µM
GI50 (U251 CNS): 3.02 µM
TGI (U251 CNS): 12.2 µM
GI50 (KM12 colon): 3.49 µM
TGI (KM12 colon): 12.6 µM
